Earlier results in patent US20080108542A1, “Perfume Compositions” (priority 2005, published 2008).

Details: 25° C.; data from literature or estimation software

SMILES	SVP (saturated vapour pressure) class
CCOC(=O)C1=C(C)C=CCC1(C)C [ETHYL 2,6,6-TRIMETHYLCYCLOHEXA-1,3-DIENE-1-CARBOXYLATE]	& (SVPs in the range of 25 to 125 micron Hg)
COC1CC2CC1C1CC=CC21 (centres unmarked) [8-METHOXY-TRICYCLO[5.2.1.0{2,6}]DEC-3-ENE]	&& (SVPs greater than 125 micron Hg)
CCCCC/C=C/CCC=O [TRANS-4-DECENAL]	&& (SVPs greater than 125 micron Hg)
CCC(C)(O)CCCC(C)C (centres unmarked) [TETRAHYDROLINALOL]	&& (SVPs greater than 125 micron Hg)
C=CCOC(=O)COCC(C)CC (centres unmarked) [2-METHYLBUTYLOXYACETIC ACID, 2-PROPENYL ESTER]	& (SVPs in the range of 25 to 125 micron Hg)
CCCCCCCCCC(C)C=O (centres unmarked) [2-METHYLUNDECANAL]	& (SVPs in the range of 25 to 125 micron Hg)
CC1=CCC(C(C)(C)O)CC1 (stereo not drawn) [ALPHA-TERPINEOL]	& (SVPs in the range of 25 to 125 micron Hg)
CCCCCCCC1CCCO1 (centres unmarked) [2-N-HEPTYLTETRAHYDROFURAN]	&& (SVPs greater than 125 micron Hg)
CC/C=C/CC/C=C/C#N [(2E,6E)-NONA-2,6-DIENENITRILE]	& (SVPs in the range of 25 to 125 micron Hg)
CC(C)CC1CCCC(C)(O)C1 (centres unmarked) [1-METHYL-3-(2-METHYLPROPYL)CYCLOHEXANOL]	& (SVPs in the range of 25 to 125 micron Hg)
CCCCCCC1CCCC1=O (centres unmarked) [2-HEXYL-CYCLOPENTANONE]	& (SVPs in the range of 25 to 125 micron Hg)
CC(=O)OC1CCC(C(C)(C)C)CC1 (centres unmarked) [PARA TERT.BUTYL CYCLOHEXYL ACETATE]	& (SVPs in the range of 25 to 125 micron Hg)
CC1=CC(C)C(C=O)CC1 (centres unmarked) [2,4-DIMETHYL-3-CYCLOHEXENE-1-CARBOXALDEHYDE]	&& (SVPs greater than 125 micron Hg)
CCCCC1OC(C)CC(C)(C)O1 (centres unmarked) [2-BUTYL-4,4,6-TRIMETHYL-1,3-DIOXAN]	&& (SVPs greater than 125 micron Hg)
